Results on eight cell lines are retold here after the supplement of paper PMC10307832.

Holding throughout (experiment): relative viability (nuclei count vs DMSO), 5 days (fraction); higher = more cells survive
Compound in the assay “Obatoclax + Bortezomib”: COC1=CC(c2cc3ccccc3[nH]2)=N/C1=C\c1[nH]c(C)cc1C [Obatoclax] + CC(C)C[C@H](NC(=O)[C@H](Cc1ccccc1)NC(=O)c1cnccn1)B(O)O [Bortezomib] (partner 0.002 µM)
Put shortly:
(§1)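 Medians of duplicate plates are given as relative viability. That measure is the nuclei count in treated wells divided by the count in vehicle wells. Counts were taken on 4× images of lung cancer cell lines in 1536-well plates, 5 days after pin-tool dosing the day after seeding with one drug alone or a fixed anchor-drug dose plus five library-drug doses (not always all listed) in √10 steps.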

Compound in the assay “Bortezomib + Crizotinib”: CC(C)C[C@H](NC(=O)[C@H](Cc1ccccc1)NC(=O)c1cnccn1)B(O)O [Bortezomib] + C[C@@H](Oc1cc(-c2cnn(C3CCNCC3)c2)cnc1N)c1c(Cl)ccc(F)c1Cl [Crizotinib] (partner 1 µM)
Put shortly: as §1

Compound in the assay “Bortezomib + Decitabine”: CC(C)C[C@H](NC(=O)[C@H](Cc1ccccc1)NC(=O)c1cnccn1)B(O)O [Bortezomib] + Nc1ncn([C@H]2C[C@H](O)[C@@H](CO)O2)c(=O)n1 [Decitabine] (partner 2 µM)
An outline of the steps:
as §1

Compound in the assay “Bortezomib + Navitoclax”: CC(C)C[C@H](NC(=O)[C@H](Cc1ccccc1)NC(=O)c1cnccn1)B(O)O [Bortezomib] + CC1(C)CCC(c2ccc(Cl)cc2)=C(CN2CCN(c3ccc(C(=O)NS(=O)(=O)c4ccc(N[C@H](CCN5CCOCC5)CSc5ccccc5)c(S(=O)(=O)C(F)(F)F)c4)cc3)CC2)C1 [Navitoclax] (partner 0.5 µM)
An outline of the steps: as §1

Take COR-L 105: the relative viability with Obatoclax + Bortezomib (first compound 0.01 µM) worked out at 0.989; with Obatoclax + Bortezomib (first compound 0.03162 µM), 0.782; with Obatoclax + Bortezomib (first compound 0.1 µM), 0.777; in the assay with Obatoclax + Bortezomib (first compound 0.3162 µM), 0.432; with Obatoclax + Bortezomib (first compound 1 µM), 0.335; in the assay with Bortezomib + Crizotinib (first compound 0.0002 µM), 0.673. The relative viability was 0.741 in the assay with Bortezomib + Crizotinib (first compound 0.000632 µM); 0.577 in the assay with Bortezomib + Crizotinib (first compound 0.002 µM); 0.206 with Bortezomib + Crizotinib (first compound 0.006325 µM); 0.215 with Bortezomib + Crizotinib (first compound 0.02 µM); 0.695 with Bortezomib + Decitabine (first compound 0.0002 µM); 0.614 with Bortezomib + Decitabine (first compound 0.000632 µM). Besides, the relative viability came to 0.526 in the assay with Bortezomib + Decitabine (first compound 0.002 µM); 0.33 with Bortezomib + Decitabine (first compound 0.006325 µM); 0.278 in the assay with Bortezomib + Decitabine (first compound 0.02 µM); 0.745 in the assay with Bortezomib + Navitoclax (first compound 0.0002 µM); 0.786 in the assay with Bortezomib + Navitoclax (first compound 0.000632 µM); 0.684 in the assay with Bortezomib + Navitoclax (first compound 0.002 µM). In addition, the relative viability amounted to 0.291 with Bortezomib + Navitoclax (first compound 0.006325 µM) and 0.253 in the assay with Bortezomib + Navitoclax (first compound 0.02 µM).
For Calu-6, the relative viability in the assay with Obatoclax + Bortezomib (first compound 0.01 µM) is 1.03; with Obatoclax + Bortezomib (first compound 0.03162 µM) it was 1.02; with Obatoclax + Bortezomib (first compound 0.1 µM), 0.979; in the assay with Obatoclax + Bortezomib (first compound 0.3162 µM) it was 0.955; with Obatoclax + Bortezomib (first compound 1 µM) it was 0.191; with Bortezomib + Crizotinib (first compound 0.0002 µM), 0.712. Moreover, the relative viability with Bortezomib + Crizotinib (first compound 0.000632 µM) was 0.777; with Bortezomib + Crizotinib (first compound 0.002 µM) it was 0.81; with Bortezomib + Crizotinib (first compound 0.006325 µM), 0.105; in the assay with Bortezomib + Crizotinib (first compound 0.02 µM), 0.0708; in the assay with Bortezomib + Navitoclax (first compound 0.0002 µM), 0.749; with Bortezomib + Navitoclax (first compound 0.000632 µM), 0.882. For the same cell line, the relative viability was found to be 0.69 in the assay with Bortezomib + Navitoclax (first compound 0.002 µM), 0.0841 with Bortezomib + Navitoclax (first compound 0.006325 µM) and 0.0734 with Bortezomib + Navitoclax (first compound 0.02 µM).
ChaGo-K-1: the relative viability with Obatoclax + Bortezomib (first compound 0.01 µM) came out at 1.11; in the assay with Obatoclax + Bortezomib (first compound 0.03162 µM) it was 0.949; with Obatoclax + Bortezomib (first compound 0.3162 µM), 0.968; with Obatoclax + Bortezomib (first compound 1 µM), 1.23; with Bortezomib + Crizotinib (first compound 0.002 µM), 1.11; with Bortezomib + Crizotinib (first compound 0.006325 µM) it was 0.304. The relative viability with Bortezomib + Crizotinib (first compound 0.02 µM) came to 0.236; with Bortezomib + Decitabine (first compound 0.0002 µM), 0.49; in the assay with Bortezomib + Decitabine (first compound 0.000632 µM), 0.444; with Bortezomib + Decitabine (first compound 0.002 µM) it was 0.561; with Bortezomib + Decitabine (first compound 0.006325 µM) it was 0.444; in the assay with Bortezomib + Decitabine (first compound 0.02 µM) it was 0.161. Moreover, the relative viability was 0.964 in the assay with Bortezomib + Navitoclax (first compound 0.002 µM), 0.307 in the assay with Bortezomib + Navitoclax (first compound 0.006325 µM) and 0.2 in the assay with Bortezomib + Navitoclax (first compound 0.02 µM).
For EBC-1, the relative viability with Obatoclax + Bortezomib (first compound 0.01 µM) was 0.637; with Obatoclax + Bortezomib (first compound 0.03162 µM) it was 0.602; in the assay with Obatoclax + Bortezomib (first compound 0.1 µM), 0.481; with Obatoclax + Bortezomib (first compound 0.3162 µM), 0.341; with Obatoclax + Bortezomib (first compound 1 µM), 0.232; in the assay with Bortezomib + Crizotinib (first compound 0.0002 µM), 0.172. For the same cell line, the relative viability was found to be 0.172 with Bortezomib + Crizotinib (first compound 0.000632 µM); 0.162 with Bortezomib + Crizotinib (first compound 0.002 µM); 0.106 with Bortezomib + Crizotinib (first compound 0.006325 µM); 0.0978 in the assay with Bortezomib + Crizotinib (first compound 0.02 µM); 0.439 with Bortezomib + Navitoclax (first compound 0.0002 µM); 0.299 with Bortezomib + Navitoclax (first compound 0.000632 µM). In addition, the relative viability with Bortezomib + Navitoclax (first compound 0.002 µM) worked out at 0.195; with Bortezomib + Navitoclax (first compound 0.006325 µM) it was 0.0921; with Bortezomib + Navitoclax (first compound 0.02 µM), 0.104.
For the cell line EKVX, the relative viability was determined as 1.05 in the assay with Obatoclax + Bortezomib (first compound 0.01 µM); 1.01 in the assay with Obatoclax + Bortezomib (first compound 0.03162 µM); 1.03 in the assay with Obatoclax + Bortezomib (first compound 0.1 µM); 1.01 with Obatoclax + Bortezomib (first compound 0.3162 µM); 1.13 with Obatoclax + Bortezomib (first compound 1 µM); 0.942 with Bortezomib + Crizotinib (first compound 0.0002 µM). Also, the relative viability was 0.894 in the assay with Bortezomib + Crizotinib (first compound 0.000632 µM); 0.822 in the assay with Bortezomib + Crizotinib (first compound 0.002 µM); 0.268 in the assay with Bortezomib + Crizotinib (first compound 0.006325 µM); 0.106 in the assay with Bortezomib + Crizotinib (first compound 0.02 µM); 0.36 with Bortezomib + Decitabine (first compound 0.0002 µM); 0.393 with Bortezomib + Decitabine (first compound 0.000632 µM). In addition, the relative viability with Bortezomib + Decitabine (first compound 0.002 µM) was 0.431; in the assay with Bortezomib + Decitabine (first compound 0.006325 µM), 0.25; with Bortezomib + Decitabine (first compound 0.02 µM), 0.0809; with Bortezomib + Navitoclax (first compound 0.0002 µM), 0.95; with Bortezomib + Navitoclax (first compound 0.000632 µM) it was 1.03; with Bortezomib + Navitoclax (first compound 0.002 µM), 0.978. Besides, the relative viability with Bortezomib + Navitoclax (first compound 0.006325 µM) turned out to be 0.44; with Bortezomib + Navitoclax (first compound 0.02 µM), 0.0945.
As for EMC-BAC-2, the relative viability with Obatoclax + Bortezomib (first compound 0.01 µM) stood at 1.15; with Obatoclax + Bortezomib (first compound 0.03162 µM), 1.04; in the assay with Obatoclax + Bortezomib (first compound 0.1 µM) it was 1.03; with Obatoclax + Bortezomib (first compound 0.3162 µM), 1.1; with Obatoclax + Bortezomib (first compound 1 µM), 1.16; with Bortezomib + Crizotinib (first compound 0.0002 µM), 0.71. Besides, the relative viability with Bortezomib + Crizotinib (first compound 0.000632 µM) amounted to 0.692; with Bortezomib + Crizotinib (first compound 0.002 µM), 0.766; in the assay with Bortezomib + Crizotinib (first compound 0.006325 µM), 0.199; with Bortezomib + Crizotinib (first compound 0.02 µM) it was 0.113; in the assay with Bortezomib + Decitabine (first compound 0.0002 µM), 1.07; with Bortezomib + Decitabine (first compound 0.000632 µM) it was 0.987. The relative viability in the assay with Bortezomib + Decitabine (first compound 0.002 µM) was found to be 0.828; with Bortezomib + Decitabine (first compound 0.006325 µM), 0.559; with Bortezomib + Decitabine (first compound 0.02 µM) it was 0.196; with Bortezomib + Navitoclax (first compound 0.0002 µM), 1.13; with Bortezomib + Navitoclax (first compound 0.000632 µM), 1.2; with Bortezomib + Navitoclax (first compound 0.002 µM) it was 1.28. In addition, the figures for the relative viability with Bortezomib + Navitoclax (first compound 0.006325 µM) and in the assay with Bortezomib + Navitoclax (first compound 0.02 µM) were 0.595 and 0.171, respectively.
On to EPLC-272H, for which the relative viability worked out at 0.833 in the assay with Obatoclax + Bortezomib (first compound 0.01 µM); 0.88 with Obatoclax + Bortezomib (first compound 0.03162 µM); 1.05 with Obatoclax + Bortezomib (first compound 0.1 µM); 0.864 with Obatoclax + Bortezomib (first compound 0.3162 µM); 0.894 with Obatoclax + Bortezomib (first compound 1 µM); 0.972 in the assay with Bortezomib + Crizotinib (first compound 0.002 µM). In addition, the relative viability was found to be 0.584 in the assay with Bortezomib + Crizotinib (first compound 0.006325 µM); 0.07 with Bortezomib + Crizotinib (first compound 0.02 µM); 0.378 with Bortezomib + Decitabine (first compound 0.0002 µM); 0.348 in the assay with Bortezomib + Decitabine (first compound 0.000632 µM); 0.321 in the assay with Bortezomib + Decitabine (first compound 0.002 µM); 0.0848 with Bortezomib + Decitabine (first compound 0.006325 µM). In addition, the relative viability with Bortezomib + Decitabine (first compound 0.02 µM) was 0.065; with Bortezomib + Navitoclax (first compound 0.002 µM), 1.06; with Bortezomib + Navitoclax (first compound 0.006325 µM), 0.0971; with Bortezomib + Navitoclax (first compound 0.02 µM) it was 0.0714.
Consider H3255, for which the relative viability in the assay with Obatoclax + Bortezomib (first compound 0.01 µM) was found to be 0.764; with Obatoclax + Bortezomib (first compound 0.03162 µM), 0.784; with Obatoclax + Bortezomib (first compound 0.1 µM) it was 0.725; in the assay with Obatoclax + Bortezomib (first compound 0.3162 µM), 0.762; with Obatoclax + Bortezomib (first compound 1 µM), 0.793; with Bortezomib + Crizotinib (first compound 0.0002 µM), 0.734. Besides, the relative viability with Bortezomib + Crizotinib (first compound 0.000632 µM) came to 0.914; with Bortezomib + Crizotinib (first compound 0.002 µM), 0.452; in the assay with Bortezomib + Crizotinib (first compound 0.006325 µM) it was 0.195; in the assay with Bortezomib + Crizotinib (first compound 0.02 µM), 0.208; with Bortezomib + Decitabine (first compound 0.0002 µM), 0.587; with Bortezomib + Decitabine (first compound 0.000632 µM), 0.583. For the same cell line, the relative viability came out at 0.316 with Bortezomib + Decitabine (first compound 0.002 µM); 0.192 with Bortezomib + Decitabine (first compound 0.006325 µM); 0.204 in the assay with Bortezomib + Decitabine (first compound 0.02 µM); 0.533 with Bortezomib + Navitoclax (first compound 0.0002 µM); 0.557 in the assay with Bortezomib + Navitoclax (first compound 0.000632 µM); 0.557 with Bortezomib + Navitoclax (first compound 0.002 µM). Besides, the relative viability with Bortezomib + Navitoclax (first compound 0.006325 µM) came out at 0.105; with Bortezomib + Navitoclax (first compound 0.02 µM), 0.0892.
